# Source: ChEMBL document CHEMBL1201862, “PubChem BioAssay data set” (2004)
# Activity calls are given as the source filed them.
# Assays:
# [1] = target: T1, Replicative DNA helicase DnaB (Mycobacterium tuberculosis, UniProt P9WMR3); assay: DnaB intein splicing inhibitors, dose response, biochemical, cell-free fluorescence (AID 449749); type: functional
# T1 sequence (P9WMR3 whole entry): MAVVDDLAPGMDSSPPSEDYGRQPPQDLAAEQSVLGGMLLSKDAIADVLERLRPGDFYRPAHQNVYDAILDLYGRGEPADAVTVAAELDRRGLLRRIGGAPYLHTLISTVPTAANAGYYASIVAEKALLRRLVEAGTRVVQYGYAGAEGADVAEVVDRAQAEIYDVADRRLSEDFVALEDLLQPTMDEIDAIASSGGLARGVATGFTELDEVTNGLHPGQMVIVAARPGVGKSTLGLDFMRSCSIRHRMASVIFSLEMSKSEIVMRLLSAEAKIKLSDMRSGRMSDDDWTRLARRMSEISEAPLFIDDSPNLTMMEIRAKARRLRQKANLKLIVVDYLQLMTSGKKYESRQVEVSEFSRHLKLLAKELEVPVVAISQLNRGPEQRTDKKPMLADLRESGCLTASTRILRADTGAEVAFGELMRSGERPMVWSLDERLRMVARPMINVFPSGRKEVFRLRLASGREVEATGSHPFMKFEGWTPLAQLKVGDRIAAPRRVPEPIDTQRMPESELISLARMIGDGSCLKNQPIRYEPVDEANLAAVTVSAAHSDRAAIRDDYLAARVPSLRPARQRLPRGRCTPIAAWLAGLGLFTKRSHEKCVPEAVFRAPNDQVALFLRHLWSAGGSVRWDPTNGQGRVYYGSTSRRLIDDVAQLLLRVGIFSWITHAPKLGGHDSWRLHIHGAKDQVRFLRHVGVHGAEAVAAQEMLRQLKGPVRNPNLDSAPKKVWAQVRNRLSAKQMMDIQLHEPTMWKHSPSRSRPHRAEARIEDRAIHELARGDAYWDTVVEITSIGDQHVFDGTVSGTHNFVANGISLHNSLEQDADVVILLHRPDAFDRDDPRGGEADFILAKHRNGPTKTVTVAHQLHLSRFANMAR
# Streptokinase A = target: T2, Streptokinase A (Streptococcus pyogenes serotype M1, UniProt P10520); assay: S. pyogenes streptokinase expression inhibitors, potency, dose response, plasminogen activation absorbance, OD405 (AID 1914); type: functional, Streptococcus pyogenes M1 GAS;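 further: secreted streptokinase activity via plasminogen activation per viability signal from cell pellet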
# T2 sequence (P10520 whole entry): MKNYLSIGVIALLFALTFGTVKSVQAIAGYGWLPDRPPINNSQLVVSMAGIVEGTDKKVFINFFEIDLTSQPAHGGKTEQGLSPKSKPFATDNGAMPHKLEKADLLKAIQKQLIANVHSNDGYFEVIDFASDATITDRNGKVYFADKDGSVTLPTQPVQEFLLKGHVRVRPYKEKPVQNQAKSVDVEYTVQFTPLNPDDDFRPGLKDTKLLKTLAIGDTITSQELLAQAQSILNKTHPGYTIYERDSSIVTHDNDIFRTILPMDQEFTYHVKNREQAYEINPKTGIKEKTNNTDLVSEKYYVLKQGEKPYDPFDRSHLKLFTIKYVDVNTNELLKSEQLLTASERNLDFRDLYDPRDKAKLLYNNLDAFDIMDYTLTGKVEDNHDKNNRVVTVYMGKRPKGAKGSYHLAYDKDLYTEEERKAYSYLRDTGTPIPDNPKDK
# [2] = Counterscreen for AddAB inhibitors: absorbance-based bacterial cell-based high throughput dose response assay for inhibitors of bacterial viability. [Related pubchem assays (depositor defined):AID435030, AID449728, AID449731, AID488942, AID488955, AID488956]; type: functional
# [3] = target: T3, Sentrin-specific protease 6 (Homo sapiens, UniProt Q9GZR1); type: functional;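 further: Luminescence-based dose-response confirmatory assay of SENP6 inhibition, following up an ultra-high-throughput screen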
# T3 sequence (Q9GZR1 whole entry): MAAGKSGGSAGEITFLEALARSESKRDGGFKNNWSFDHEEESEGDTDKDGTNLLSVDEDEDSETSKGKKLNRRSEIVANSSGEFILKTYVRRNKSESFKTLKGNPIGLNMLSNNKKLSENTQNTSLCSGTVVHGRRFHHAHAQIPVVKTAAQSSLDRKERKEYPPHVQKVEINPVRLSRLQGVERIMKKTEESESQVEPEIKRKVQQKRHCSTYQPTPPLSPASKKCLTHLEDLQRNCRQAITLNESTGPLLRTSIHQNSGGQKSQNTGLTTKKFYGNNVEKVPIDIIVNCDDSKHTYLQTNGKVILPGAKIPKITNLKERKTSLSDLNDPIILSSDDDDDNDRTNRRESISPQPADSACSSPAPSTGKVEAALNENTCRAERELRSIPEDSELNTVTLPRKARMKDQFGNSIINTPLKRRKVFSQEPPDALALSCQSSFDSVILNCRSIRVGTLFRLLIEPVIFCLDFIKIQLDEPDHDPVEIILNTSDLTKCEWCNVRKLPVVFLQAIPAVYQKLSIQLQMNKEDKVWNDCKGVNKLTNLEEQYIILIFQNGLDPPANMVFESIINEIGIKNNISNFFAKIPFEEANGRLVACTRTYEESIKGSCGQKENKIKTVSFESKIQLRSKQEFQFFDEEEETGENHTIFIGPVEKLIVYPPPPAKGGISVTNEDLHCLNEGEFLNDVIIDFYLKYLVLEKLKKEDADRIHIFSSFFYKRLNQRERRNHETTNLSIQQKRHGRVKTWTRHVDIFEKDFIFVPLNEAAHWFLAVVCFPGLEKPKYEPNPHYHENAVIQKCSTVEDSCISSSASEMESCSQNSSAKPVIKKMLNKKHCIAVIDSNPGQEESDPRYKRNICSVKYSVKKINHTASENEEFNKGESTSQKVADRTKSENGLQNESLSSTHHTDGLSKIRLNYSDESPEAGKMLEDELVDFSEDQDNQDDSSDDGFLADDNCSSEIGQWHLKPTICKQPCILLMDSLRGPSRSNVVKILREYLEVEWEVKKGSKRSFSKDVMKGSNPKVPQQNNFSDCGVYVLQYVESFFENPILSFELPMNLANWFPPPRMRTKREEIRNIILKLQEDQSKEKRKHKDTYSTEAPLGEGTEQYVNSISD
# [4] = target: Glycogen synthase kinase-3 alpha (Homo sapiens, UniProt P49840); type: functional;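 further: GSK3A result taken from a broad kinome-wide kinase panel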
# Chain of Glycogen synthase kinase-3 alpha (P49840 whole entry): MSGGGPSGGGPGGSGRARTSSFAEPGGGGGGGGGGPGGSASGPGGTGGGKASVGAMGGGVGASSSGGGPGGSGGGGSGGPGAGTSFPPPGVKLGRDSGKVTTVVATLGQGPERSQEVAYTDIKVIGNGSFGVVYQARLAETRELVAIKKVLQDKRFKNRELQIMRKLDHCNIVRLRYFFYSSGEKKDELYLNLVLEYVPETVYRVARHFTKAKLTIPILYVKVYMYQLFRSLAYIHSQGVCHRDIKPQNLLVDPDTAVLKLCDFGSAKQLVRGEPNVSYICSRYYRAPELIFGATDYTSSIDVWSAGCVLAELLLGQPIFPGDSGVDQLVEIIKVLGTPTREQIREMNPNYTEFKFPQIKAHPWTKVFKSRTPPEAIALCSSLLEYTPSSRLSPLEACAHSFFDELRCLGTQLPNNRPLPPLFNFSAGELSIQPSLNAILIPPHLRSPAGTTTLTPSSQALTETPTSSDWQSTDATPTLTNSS
# Activated CDC42 kinase 1 = Activated CDC42 kinase 1 (Homo sapiens, UniProt Q07912); assay: Navigating the Kinome. Panel member name: ACK1; type: functional
# Chain of Activated CDC42 kinase 1 (Q07912 whole entry): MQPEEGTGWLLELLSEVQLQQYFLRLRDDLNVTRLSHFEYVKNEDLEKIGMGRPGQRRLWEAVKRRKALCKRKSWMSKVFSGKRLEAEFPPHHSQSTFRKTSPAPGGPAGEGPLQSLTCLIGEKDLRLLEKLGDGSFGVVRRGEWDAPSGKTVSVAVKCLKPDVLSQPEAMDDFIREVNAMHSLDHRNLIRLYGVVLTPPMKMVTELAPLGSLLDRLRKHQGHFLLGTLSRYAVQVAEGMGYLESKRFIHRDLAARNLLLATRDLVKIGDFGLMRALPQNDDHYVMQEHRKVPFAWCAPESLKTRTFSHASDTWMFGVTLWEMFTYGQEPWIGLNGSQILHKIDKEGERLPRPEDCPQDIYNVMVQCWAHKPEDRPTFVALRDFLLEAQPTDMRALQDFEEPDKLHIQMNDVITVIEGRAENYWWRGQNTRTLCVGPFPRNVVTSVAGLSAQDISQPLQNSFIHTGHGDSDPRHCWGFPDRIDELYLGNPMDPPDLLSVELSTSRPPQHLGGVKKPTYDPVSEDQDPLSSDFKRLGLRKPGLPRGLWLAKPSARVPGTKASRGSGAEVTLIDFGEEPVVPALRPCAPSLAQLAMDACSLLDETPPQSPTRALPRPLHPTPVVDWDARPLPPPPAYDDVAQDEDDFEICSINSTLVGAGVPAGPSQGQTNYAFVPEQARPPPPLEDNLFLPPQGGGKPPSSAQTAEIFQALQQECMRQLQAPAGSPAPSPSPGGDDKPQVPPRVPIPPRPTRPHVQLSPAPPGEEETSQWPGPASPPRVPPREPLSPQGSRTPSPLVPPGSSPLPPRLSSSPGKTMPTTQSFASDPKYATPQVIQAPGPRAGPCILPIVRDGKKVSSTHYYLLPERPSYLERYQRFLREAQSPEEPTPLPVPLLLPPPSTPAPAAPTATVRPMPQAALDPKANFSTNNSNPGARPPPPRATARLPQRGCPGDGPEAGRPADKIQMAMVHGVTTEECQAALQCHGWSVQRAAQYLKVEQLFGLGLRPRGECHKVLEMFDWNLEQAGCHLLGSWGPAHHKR
# [5] = target: Tyrosine-protein kinase JAK2 (Homo sapiens, UniProt O60674); type: functional;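 further: JAK2 tested as one member of a kinase panel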
# Chain of Tyrosine-protein kinase JAK2 (O60674 whole entry): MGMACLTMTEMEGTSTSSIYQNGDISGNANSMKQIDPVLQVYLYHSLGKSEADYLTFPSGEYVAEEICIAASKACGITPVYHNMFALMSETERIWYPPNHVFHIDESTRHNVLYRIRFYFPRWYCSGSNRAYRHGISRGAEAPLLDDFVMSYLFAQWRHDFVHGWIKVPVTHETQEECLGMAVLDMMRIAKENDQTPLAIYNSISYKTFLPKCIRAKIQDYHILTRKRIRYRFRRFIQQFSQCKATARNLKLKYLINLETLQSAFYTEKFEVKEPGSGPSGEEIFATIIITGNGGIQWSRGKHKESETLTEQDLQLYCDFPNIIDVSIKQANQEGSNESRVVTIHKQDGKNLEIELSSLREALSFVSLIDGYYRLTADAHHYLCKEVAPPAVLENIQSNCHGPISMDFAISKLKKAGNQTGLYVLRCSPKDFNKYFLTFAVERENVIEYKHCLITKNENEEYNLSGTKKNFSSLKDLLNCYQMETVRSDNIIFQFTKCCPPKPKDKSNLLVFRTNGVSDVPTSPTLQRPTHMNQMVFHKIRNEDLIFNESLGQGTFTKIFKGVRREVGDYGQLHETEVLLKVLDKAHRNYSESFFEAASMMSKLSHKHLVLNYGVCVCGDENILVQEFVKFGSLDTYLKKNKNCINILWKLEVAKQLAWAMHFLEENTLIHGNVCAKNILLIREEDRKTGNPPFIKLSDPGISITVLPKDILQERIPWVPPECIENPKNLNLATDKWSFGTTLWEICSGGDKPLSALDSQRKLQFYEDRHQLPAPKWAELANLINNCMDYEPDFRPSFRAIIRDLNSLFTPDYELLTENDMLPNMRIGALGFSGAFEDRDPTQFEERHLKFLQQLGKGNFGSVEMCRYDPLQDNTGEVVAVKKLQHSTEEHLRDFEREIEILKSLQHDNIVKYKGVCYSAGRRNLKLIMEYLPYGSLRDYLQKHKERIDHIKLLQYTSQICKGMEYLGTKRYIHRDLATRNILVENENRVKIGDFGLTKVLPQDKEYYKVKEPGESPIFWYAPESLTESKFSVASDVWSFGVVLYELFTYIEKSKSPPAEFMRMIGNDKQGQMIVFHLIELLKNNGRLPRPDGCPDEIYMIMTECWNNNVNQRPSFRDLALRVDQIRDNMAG
# [6] = target: Platelet-derived growth factor receptor alpha (Homo sapiens, UniProt P16234); assay: Navigating the Kinome. Panel member name: PDGFRA; type: functional
# Chain of Platelet-derived growth factor receptor alpha (P16234 whole entry): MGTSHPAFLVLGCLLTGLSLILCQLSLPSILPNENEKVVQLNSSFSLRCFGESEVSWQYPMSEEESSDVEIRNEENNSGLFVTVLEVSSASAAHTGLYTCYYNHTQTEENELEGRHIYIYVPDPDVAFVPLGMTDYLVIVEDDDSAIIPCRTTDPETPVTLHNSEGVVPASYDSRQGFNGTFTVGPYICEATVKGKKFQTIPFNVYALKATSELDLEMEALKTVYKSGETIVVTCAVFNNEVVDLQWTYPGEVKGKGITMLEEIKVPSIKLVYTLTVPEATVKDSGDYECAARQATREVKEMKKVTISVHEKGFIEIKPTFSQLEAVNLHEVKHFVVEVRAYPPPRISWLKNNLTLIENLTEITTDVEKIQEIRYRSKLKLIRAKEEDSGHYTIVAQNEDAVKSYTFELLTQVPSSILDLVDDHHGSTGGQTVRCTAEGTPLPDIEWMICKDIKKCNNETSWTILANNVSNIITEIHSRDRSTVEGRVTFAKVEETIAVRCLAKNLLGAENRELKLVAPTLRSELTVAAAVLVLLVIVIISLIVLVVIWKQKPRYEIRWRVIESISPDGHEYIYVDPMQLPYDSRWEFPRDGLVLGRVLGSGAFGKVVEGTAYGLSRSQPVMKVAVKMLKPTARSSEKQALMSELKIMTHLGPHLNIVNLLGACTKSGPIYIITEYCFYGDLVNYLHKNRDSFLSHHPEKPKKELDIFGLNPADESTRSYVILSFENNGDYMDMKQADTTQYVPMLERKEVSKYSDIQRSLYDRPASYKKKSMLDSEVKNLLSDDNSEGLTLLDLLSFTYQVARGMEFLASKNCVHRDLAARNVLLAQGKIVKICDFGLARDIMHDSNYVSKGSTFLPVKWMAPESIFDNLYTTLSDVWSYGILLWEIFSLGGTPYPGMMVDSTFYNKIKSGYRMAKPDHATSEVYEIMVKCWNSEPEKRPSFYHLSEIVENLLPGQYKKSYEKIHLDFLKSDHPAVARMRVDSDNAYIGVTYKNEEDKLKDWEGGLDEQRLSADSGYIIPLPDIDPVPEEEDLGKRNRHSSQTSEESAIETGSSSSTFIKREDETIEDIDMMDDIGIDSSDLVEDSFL
# [7] = target: G protein-coupled receptor kinase 5 (Homo sapiens, UniProt P34947); assay: Navigating the Kinome. Panel member name: GPRK5; type: functional
# [8] = target: Proto-oncogene tyrosine-protein kinase receptor Ret (Homo sapiens, UniProt P07949); type: functional;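 further: measured within a kinome-wide profiling panel, RET as the panel member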
# [9] = target: Receptor-type tyrosine-protein kinase FLT3 (Homo sapiens, UniProt P36888); type: functional;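 further: FLT3 was tested as one member of a kinome-wide kinase panel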
# Chain of Receptor-type tyrosine-protein kinase FLT3 (P36888 whole entry): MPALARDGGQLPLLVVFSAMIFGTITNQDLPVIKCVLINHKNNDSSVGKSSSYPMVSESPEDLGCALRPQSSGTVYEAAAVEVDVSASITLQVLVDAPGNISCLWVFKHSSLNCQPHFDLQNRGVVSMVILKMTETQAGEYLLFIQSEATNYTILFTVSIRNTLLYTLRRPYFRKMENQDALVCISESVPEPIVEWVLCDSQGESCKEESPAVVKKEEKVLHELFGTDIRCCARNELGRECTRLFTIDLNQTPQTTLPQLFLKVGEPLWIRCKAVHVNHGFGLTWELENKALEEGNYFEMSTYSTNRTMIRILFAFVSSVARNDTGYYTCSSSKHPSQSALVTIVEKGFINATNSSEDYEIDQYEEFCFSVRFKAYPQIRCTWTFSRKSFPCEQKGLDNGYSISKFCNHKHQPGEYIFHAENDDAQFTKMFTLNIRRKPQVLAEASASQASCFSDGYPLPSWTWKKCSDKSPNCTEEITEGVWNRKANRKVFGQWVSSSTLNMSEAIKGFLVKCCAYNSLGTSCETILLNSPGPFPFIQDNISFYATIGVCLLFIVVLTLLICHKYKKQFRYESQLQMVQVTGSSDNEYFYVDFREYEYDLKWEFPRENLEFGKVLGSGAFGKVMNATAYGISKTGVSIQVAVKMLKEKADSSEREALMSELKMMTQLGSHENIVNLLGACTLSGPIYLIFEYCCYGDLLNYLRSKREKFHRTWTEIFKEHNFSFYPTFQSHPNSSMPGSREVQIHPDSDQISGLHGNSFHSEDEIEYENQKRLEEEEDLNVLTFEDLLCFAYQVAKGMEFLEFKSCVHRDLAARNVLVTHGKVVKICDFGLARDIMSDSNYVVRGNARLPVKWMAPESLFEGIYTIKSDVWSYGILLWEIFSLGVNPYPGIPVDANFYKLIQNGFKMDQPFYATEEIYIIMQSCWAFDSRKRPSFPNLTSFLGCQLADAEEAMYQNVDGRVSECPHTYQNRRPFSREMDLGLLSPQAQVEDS
smiles,measurement,setting,value
CN1CCN(C(c2ccc(C(F)(F)F)cc2)c2cc(Cl)c3cccnc3c2O)CC1 (stereo unspecified),AC50,[1],11.9 µM (active)
same,EC50,Streptokinase A,> 150 µM (not active)
same,IC50,[2],105 µM (inactive)
NC(=O)c1c(NC(=O)c2cc3ccccc3o2)sc2c1CCC2,IC50,[3],17.2 µM (active)
O=C(NC(CCO)c1ccccc1)c1ccc(-c2ccncc2)cc1 (stereo unspecified),Ki,[4],1.26 µM (active)
same,Ki,Activated CDC42 kinase 1,> 3.98 µM (inactive)
same,Ki,[5],> 2.51 µM (inactive)
same,Ki,[6],> 2.51 µM (inactive)
same,Ki,[7],> 3.98 µM (inactive)
same,Ki,[8],> 3.16 µM (inactive)
same,Ki,[9],> 3.16 µM (inactive)
